Experimental data: patent US7000348B2, “Method and composition for tree root colonization” (Vamtech, LLC, priority 2003, dated 2006)
“Also recorded” adds a separate entry of the source.

Key:
Assay type in all cases: in vivo
[1] = test system: Ponderosa pine seedlings; assay: Caliper diameter of Ponderosa pine seedlings; details: potassium formononetinate 60 mg/L added to R. rubescens inoculation
Protocol: (§1) Ponderosa pine seeds were sown in a soilless mix (50:50 peat:vermiculite) in 2 cm^3 cells in STRYOBLOCK™ containers (Beaver Plastics, Corvallis, Oreg.) inside the greenhouse at the J. Herbert Stone Nursery in Central Point, Oreg. Eight weeks after germination, all emerging ponderosa pine seedlings were inoculated with 100,000 spores each of the ectomycorrhizal fungus R. rubescens using a liquid suspension applied via a traveling irrigation boom. Liquid spore suspension was prepared by maceration of R. rubescens sporocarps in distilled water for 10 min, followed by serial dilution with distilled water. Spore concentrations were determined using a hemacytometer. Soluble fertilizer (250 ppm N, 60 ppm P and 158 ppm K plus micronutrients) was applied with irrigation for optimum growth. Temperatures were held between 65° F. and 75° F. in the greenhouse. […]
(§2) The diameter of all seedlings in all of the treatments was then measured with a caliper. […] Samples were analyzed for total nitrogen and phosphorus (Kjeldahl digest with ammonia and orthophosphate read on an auto-analyzer), and extractable potassium (microwave digestion) with inductively couples argon plasma spectrometer (ICPMS).
(§3) All trials were conducted in a randomized complete block design. […] Means comparisons were calculated using Fisher's LSD (least significant difference). […]

[2] = test system: Ponderosa pine seedlings; assay: Foliar nutrient analysis of Ponderosa pine needles; details: 60 mg/L, vs seedlings treated with R. rubescens alone
Protocol: as §1, §2, §3

[3] = test system: Douglas-fir seedlings; assay: Caliper diameter of Douglas-fir seedlings
Description: (§4) Douglas-fir seeds were sown in 2 cm^3 in cells in Stryoblock™ containers filled with soilless mix (50:50 peat:vermiculite) in the greenhouse at the J. Herbert Stone Nursery in Central Point, Oreg. Soluble fertilizer applications, temperatures, and hardening off procedure were the same as those described for Ponderosa pine above. No pesticides were used on the crop during this period, and no mycorrhizal inoculum was applied prior to applications of treatments.
(§5) Eight months after sowing, fourteen Douglas-fir seedlings were randomly sampled (2 or 3 from 6 trays) to determine colonization by the mycorrhizal fungus R. parksii. No colonization by R. parksii was present at this time. […]
as §2, §3

[4] = test system: Douglas-fir seedlings; assay: Foliar nutrient analysis of Douglas-fir needles
Description: as §4
Eight months after sowing, fourteen Douglas-fir seedlings were randomly sampled (2 or 3 from 6 trays) to determine colonization by the mycorrhizal fungus R. parksii. No colonization by R. parksii was present at this time. The treatments applied to three trays of 20 seedlings each were a control with no potassium formononetinate or mycorrhizal inoculation (C), potassium formononetinate only at 20 mg/L of soilless mix (M-20), mycorrhizal inoculation only at 100,000 R. parksii spores/cavity applied with a graduated pipette (R-100), mycorrhizal inoculation with R. parksii at 100,000 spores per cavity plus potassium formononetinate at 20 mg/L of soilless mix (0.11 per 60 seedlings) (M-20+R-100), mycorrhizal inoculation with R. parksii at 100,000 spores per cavity plus potassium formononetinate at 60 mg/L of soilless mix (0.33 per 60 seedlings) (M-60+R-100), and mycorrhizal inoculation with R. parksii at 50,000 spores cavity plus potassium formononetinate at 20 mg/L of soilless mix (M-20+R-50). Potassium formononetinate was provided by VAMTech L.L.C., Lansing, Mich.
The diameter of all seedlings in all of the treatments was then measured with a caliper. Needle samples for Ponderosa pine and Douglas-fir were collected from 4 randomly selected seedlings in each treatment for foliar analysis. Samples were analyzed for total nitrogen and phosphorus (Kjeldahl digest with ammonia and orthophosphate read on an auto-analyzer), and extractable potassium (microwave digestion) with inductively couples argon plasma spectrometer (ICPMS).
All trials were conducted in a randomized complete block design. Analyses of variance (ANOVA) were performed separately for seedling caliper, nutrient content, and mycorrhizal colonization (Steel and Torrie 1980). Means comparisons were calculated using Fisher's LSD (least significant difference). Residuals from the performed ANOVA's were examined using normal probability plots, tests that the residuals come from normal distributions and plots of residuals versus predicted values. Before analysis, mycorrhizal colonization data as logarithmically transformed to compensate for log-normally distributed values (Steel and Torrie 1980).

[5] = test system: R. parksii; assay: Mycorrhizal colonization of Douglas-fir roots by Rhizopogon (root tip tally)
Description: as §4, §5, §3

[6] = test system: R. rubescens; assay: Mycorrhizal colonization of Ponderosa pine seedlings by Rhizopogon (root tip tally); details: potassium formononetinate 60 mg/L with R. rubescens spores vs spores alone
Protocol: as §1, with “greenhouse. The seedlings were hardened off about six months after sowing by reducing the amount of irrigation water and fertilizer in it (to 50 ppm N, 31 ppm P and 150 ppm K plus micronutrients). No pesticides were used on the crop during this period. Ponderosa pine seedlings were then each inoculated again with 100,000 spores of R. rubescens using the same inoculation procedure.” for “greenhouse.”
as §3

[7] = M = potassium formononetinate mg/L, R = R. parksii spores x1000 per cavity
[8] = R. parksii and potassium formononetinate, over the untreated control, but not over R. parksii alone

Compound: COc1ccc(-c2coc3cc([O-])ccc3c2=O)cc1.[K+] [potassium formononetinate, potassium salt of 7-hydroxy, 4′-methoxy isoflavone]
- caliper diameter, Ponderosa pine (effect in words) [1]: not significantly increased; also recorded: not significantly affected
- nitrogen content, Ponderosa pine (effect in words) [2]: significantly increased
- caliper diameter, Douglas-fir ([3]; thirteen months after sowing, M = potassium formononetinate mg/L, R = R. parksii spores x1000 per cavity): 0.2 cm
- caliper size, Douglas-fir (effect in words) ([3]; vs untreated control, R. parksii alone or plus potassium formononetinate): increased caliper size over the control
- potassium content, Douglas-fir (effect in words) ([4]; 60 mg/L plus R. parksii, vs untreated plants, R. parksii alone and any other treatment): significantly higher
- foliar nitrogen content, Douglas-fir needles [4, 7]: 1.29%
- foliar phosphorous content, Douglas-fir needles [4, 7]: 0.15%
- nitrogen content, Douglas-fir (effect in words) [4, 8]: significantly increased
- phosphorus content, Douglas-fir (effect in words) [4, 8]: significantly increased
- root colonization by Rhizopogon, Douglas-fir (effect in words) ([5]; potassium formononetinate 60 mg/L with R. parksii spores): significantly increased
- Mycorrhizal colonization of Douglas-fir roots by R. parksii ([5]; thirteen months after sowing, M-20/M-60 = potassium formononetinate 20/60 mg/L of soilless mix, R-100/R-50 = 100,000/50,000 R. parksii spores per cavity): 0%
- root colonization by Rhizopogon, Ponderosa pine (effect in words) [6]: significantly increased
